Measurements as given in patent US20050222251A1, “Dual inhibition of cyclooxygenase-2 and carbonic anhydrase” (AMOREPACIFIC CORPORATION, priority 2004, published 2005).
Like-named read-outs stand apart in the source and are kept apart here. Values belong to the compound of their own block, whether it stands above or below them.

Columns and labels:
Human CA I [1] = target: T1, Human CA I (Homo sapiens, UniProt P00915); experiment: Inhibition assay for CA (Method B, esterase activity), CA I; assay type: biochemical; settings: p-nitrophenylacetate hydrolysis, pH 7.6
T1 construct: purchased Sigma C-6165
T1 sequence (P00915 whole entry): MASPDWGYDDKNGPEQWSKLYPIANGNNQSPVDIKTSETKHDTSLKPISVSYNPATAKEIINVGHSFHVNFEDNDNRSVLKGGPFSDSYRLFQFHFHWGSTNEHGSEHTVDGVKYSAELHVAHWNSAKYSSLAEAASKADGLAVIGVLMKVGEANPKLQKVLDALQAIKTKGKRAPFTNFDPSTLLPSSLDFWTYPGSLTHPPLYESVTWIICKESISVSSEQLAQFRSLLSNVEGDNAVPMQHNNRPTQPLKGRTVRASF
Method: (§1) Compounds of Formula I were assessed for their inhibitory activities against human CAs according to methods described in a literature and a prior art. […] Details of the employed assay methods (Method A and Method B) for the inhibition of CAs are provided in the section of “MATERIALS AND METHODS” of this invention. Provided below are some of compounds of Formula I assayed for the inhibition of CAs. [drawing 6] [drawing 7] [drawing 8]
(§2) DMSO and buffer agents were obtained from Sigma. Distilled water was prepared in-house by distilling deionized water.
(§3) The employed method is briefly described as follows. An aqueous reaction mixture consisting of 2 Wilbur-Anderson units of CA, 4 mM p-nitrophenylacetate, 5% DMSO, 0.1 M Na2SO4, and 50 mM Tris-HCl buffer at pH 7.6 was prepared to contain a designated amount of inhibitor. The esterase activity of CA (the hydrolysis of p-nitrophenylacetate) was followed by the increases in absorbance at 405 nm using an ELISA reader at room temperature. The initial rate (slope of the initial absorbance data) data from the absorbance data were used to calculate % inhibition of CA at a designated concentration of inhibitor according to equation (7). % Inhibition=[1−(Initial Rate with Inhibitor)/(Initial Rate without Inhibitor)]×100 (7)

[2] = Repeat dose toxicity study in monkeys
Method: Toxicokinetic studies were performed with treatment groups in monkeys. Satellite toxicokinetic groups were used for the toxicokinetic studies of treatment groups in rats. Animals at terminal sacrifice were evaluated for histopathological findings in the GI tract and other organs.

[3] = tested on: carrageenan-induced thermal hyperalgesia; settings: male SD rats, orally administered; cited from earlier work
[4] = Plasma protein binding, filtration method, 14C-labeled compound; assay type: in vitro ADME; settings: Sprague-Dawley (SD), rat, broad range of concentrations
Method: Alternatively, plasma protein binding was determined by a filtration method employing a ^14C-labeled compound of Formula I. Scintillation counting was used for analysis in place of HPLC.

[5] = tested on: adjuvant-induced arthritis; settings: male Lewis rats, oral, bid; cited from earlier work
[6] = Plasma protein binding, filtration method, HPLC; assay type: in vitro ADME; settings: male, SD; pooled rat plasma at 1 μg/ml
Method: Plasma Protein Binding of Compound: Plasma protein binding was determined for a compound of Formula I by a filtration method. An aliquot of a compound stock solution in DMSO was added to a designated volume of freshly prepared pooled plasma from male SD rats. The plasma solution was then subjected to filtration using a centrifuge filter (Amicon YM-30) at 4000 g for 30 min. The filtrate was analyzed by HPLC to determine the concentration of the compound.

Human CA II [7] = target: T2, Human CA II (Homo sapiens, UniProt P00918); experiment: Inhibition assay for CA (Method A), CA II; assay type: biochemical; settings: CO2 hydration, phenol red
T2 construct: purchased Sigma C-4936
Method: as §1, §2
(§4) Inhibition Assay for CA (Method A): CA inhibitory activities by COX-2 inhibitors of this invention were assessed by a previously reported method. […] Then the interval was measured from the initiation of the reaction to the point of the color change of the solution from purple to yellow. During the entire reaction, the reaction solution was kept bubbled with CO2.

[8] = Partitioning between plasma and erythrocytes, 14C-labeled compound; assay type: in vitro ADME
Method: Alternatively, partitioning between plasma and erythrocytes was determined by using a ^14C-labeled compound of Formula I and whole blood withdrawn as heparinized. Scintillation counting was used for analysis in place of HPLC.

[9] = Pharmacokinetic studies in rats; assay type: in vivo; settings: rat, plasma
Method: Pharmacokinetic Studies in Rats: An appropriate amount of a compound suspended in 1% aqueous methylcelluose solution was administered to male SD rats by oral gavage. Blood samples were collected from the retro-orbital sinus at designated time points over 0 to 24 hours post dose. Plasma was separated from each withdrawn blood sample by centrifugation and the plasma sample was stored at 4° C. until HPLC analysis for the quantification of the compound. The plasma samples were analyzed by reverse phase HPLC using an appropriate internal standard and a pre-established calibration curve.

[10] = Repeat dose toxicity study in rats; assay type: in vivo, rat
Human CA II [11] = target: T2, Human CA II; experiment: Inhibition assay for CA (Method B, esterase activity), CA II; assay type: biochemical; settings: p-nitrophenylacetate hydrolysis, pH 7.6
Method: as §1, §2, §3

Human CA I [12] = target: T1, Human CA I; experiment: Inhibition assay for CA (Method A), CA I; assay type: biochemical; settings: CO2 hydration, phenol red
Method: as §1, §2, §4

[13] = cited from earlier work; for primary target sites of the GI adverse events: repeated oral administrations
[14] = cited from earlier work
intraocular pressure = settings: oral administration, hypertensive rabbits; cited from earlier work
[15] = human whole blood, FDA pharmacology review; cited from earlier work
[16] = FDA pharmacology review; valdecoxib in human whole blood; cited from earlier work
[17] = repeated oral administrations for 4 weeks

IC50 (Human CA I [1]): 290 nM
fraction unbound [4]: ~0.1
fraction unbound at 1 μg/ml [6]: < 0.01
IC50 (Human CA II [7]): 800 nM
Cmax ([9]; male, SD, oral, 0.05 mg/kg, 82 ng/ml divided by 20, read-out: Cmax calculated for 0.1 mg/kg/day, bid (0.05 mg/kg)): 4.1 ng/mL
Cmax ([9]; oral 1 mg/kg, male SD rats, read-out: plasma Cmax): 82 ng/mL
IC50 (Human CA II [11]): 63 nM
IC50 (Human CA I [12]): 3 µM
Compound: CC1(C)OC(c2ccc(S(N)(=O)=O)cc2)=C(c2cccc(F)c2)C1=O [Example 1, 5-{4-(aminosulfonyl)phenyl}-2,2-dimethyl-4-(3-fluorophenyl)-3(2H)furanone]
histopathological findings in the stomach ([2]; 4 weeks, one out of 18 subjects): one case of focal mucosal degeneration in the stomach
daily systemic exposure of the subject with the histopathological finding in the stomach ([2]; final day of the treatment): > 20,000 hr×ng/ml
histopathological findings in the intestines [2, 17]: not associated with positive histopathological findings in the intestines
ED50 in carrageenan-induced thermal hyperalgesia [3]: 0.25 mg/kg
ED50 by adjuvant-induced arthritis [5]: 0.1 mg/kg/day
distribution to erythrocytes over plasma [8]: even more preferentially distribute to erythrocytes over plasma
primary target site of the intestinal adverse findings [10]: caecum
dose limiting adverse effects ([10]; oral, up to 4 weeks): Intestinal adverse effects (primarily in the caecum)
daily systemic exposure without positive histopathological findings in the stomach [10, 17]: ~30,000 hr×ng/ml
histopathological findings in the stomach ([10]; repeated oral administrations for 4 weeks, daily systemic exposure of ca 30,000 hr×ng/ml): no positive histopathological findings in the stomach

IC50 (Human CA II [7]): 740 nM
IC50 (Human CA I [12]): 3.2 µM
Compound: CC1(C)OC(c2ccc(S(N)(=O)=O)cc2)=C(c2cc(F)ccc2F)C1=O [Example 2, 5-{4-(aminosulfonyl)phenyl}-4-(2,5-difluorophenyl)-2,2-dimethyl-3(2H)furanone]

IC50 (Human CA I [1]): 210 nM
IC50 (Human CA II [7]): 450 nM
IC50 (Human CA II [11]): 27 nM
IC50 (Human CA I [12]): 1.7 µM
Compound: CC1(C)OC(c2ccc(S(N)(=O)=O)c(F)c2)=C(c2cccc(F)c2)C1=O [Example 4, 5-{4-(aminosulfonyl)-3-fluorophenyl}-2,2-dimethyl-4-(3-fluorophenyl)-3(2H)furanone]

IC50 (Human CA I [1]): 240 nM
IC50 (Human CA II [7]): 480 nM
IC50 (Human CA II [11]): 14 nM
IC50 (Human CA I [12]): 1.3 µM
Compound: CC1(C)OC(c2ccc(S(N)(=O)=O)c(F)c2)=C(c2cc(F)ccc2F)C1=O [Example 5, 5-{4-(aminosulfonyl)-3-fluorophenyl}-4-(2,5-difluorophenyl)-2,2-dimethyl-3(2H)furanone]

IC50 (Human CA II [7]): 910 nM
IC50 (Human CA I [12]): 5 µM
Compound: CC1(C)OC(c2ccc(S(N)(=O)=O)c(F)c2)=C(c2ccc(F)c(F)c2)C1=O [Example 6, 5-{4-(aminosulfonyl)-3-fluorophenyl}-4-(3,4-difluorophenyl)-2,2-dimethyl-3(2H)furanone]

IC50 (Human CA II [7]): 630 nM
IC50 (Human CA I [12]): 3.4 µM
Compound: CC1(C)OC(c2ccc(S(N)(=O)=O)c(F)c2)=C(c2cc(F)cc(F)c2)C1=O [Example 7, 5-{4-(aminosulfonyl)-3-fluorophenyl}-4-(3,5-difluorophenyl)-2,2-dimethyl-3(2H)furanone]

IC50 (Human CA II [7]): 420 nM
IC50 (Human CA I [12]): 1.9 µM
Compound: CC1(C)OC(c2ccc(S(N)(=O)=O)cc2F)=C(c2ccc(F)cc2)C1=O [Example 8, 5-{4-(aminosulfonyl)-2-fluorophenyl}-2,2-dimethyl-4-(4-fluorophenyl)-3(2H)furanone]

IC50 (Human CA II [7]): 630 nM
IC50 (Human CA I [12]): 4.7 µM
Compound: CC1(C)OC(c2ccc(S(N)(=O)=O)cc2F)=C(c2cc(F)cc(F)c2)C1=O [Example 9, 5-{4-(aminosulfonyl)-2-fluorophenyl}-4-(3,5-difluorophenyl)-2,2-dimethyl-3(2H)furanone]

IC50 (Human CA II [7]): 5400 nM
IC50 (Human CA I [12]): 9.1 µM
Compound: Cc1cc(C2=C(c3cccc(F)c3)C(=O)C(C)(C)O2)ccc1S(N)(=O)=O [Example 10, 5-{4-(aminosulfonyl)-3-methylphenyl}-2,2-dimethyl-4-(3-fluorophenyl)-3(2H)furanone]

Compound: Cc1cnc(NC(=O)C2=C(O)c3ccccc3S(=O)(=O)N2C)s1 [Meloxicam]
primary target sites of the GI adverse events ([13]; rats): duodenum

Compound: Cc1ccc(-c2cc(C(F)(F)F)nn2-c2ccc(S(N)(=O)=O)cc2)cc1 [celecoxib]
gastric toxicity ([13]; rat, in vivo): not associated with gastric toxicity
primary target sites of the GI adverse events ([13]; rats): jejunum and ileum
thromboembolic events ([14]; 400 mg/day and 800 mg/day, long term cancer prevention trial (APC)): increases in the thromboembolic events

Compound: O=C(O)Cc1ccccc1Nc1c(Cl)cccc1Cl [diclofenac]
effect on intraocular pressure (intraocular pressure): failed to reduce the intraocular pressure

Compound: COc1ccc2c(c1)c(CC(=O)O)c(C)n2C(=O)c1ccc(Cl)cc1 [indomethacin, reference compound]
ED50 in carrageenan-induced thermal hyperalgesia [3]: ~1.0 mg/kg
ED50 by adjuvant-induced arthritis [5]: 0.3 mg/kg/day

Compound: CS(=O)(=O)c1ccc(C2=C(c3ccccc3)C(=O)OC2)cc1 [rofecoxib]
gastric toxicity ([13]; rats, doses where the intestinal toxicity began to come out): not associated with gastric toxicity
primary target sites of the GI adverse events ([13]; rats): jejunum and ileum
distribution ratio erythrocytes over plasma [15]: no noticeable preferential distribution
thromboembolic cardiovascular events ([14]; 25 mg/day, long term cancer prevention trial (APPROVe)): increased risk of thromboembolic cardiovascular events
plasma protein binding [16]: 87%

Compound: Cc1onc(-c2ccccc2)c1-c1ccc(S(N)(=O)=O)cc1 [valdecoxib]
gastric toxicity ([13]; rat, in vivo): not associated with gastric toxicity
thromboembolic events ([14]; acute use, coronary artery bypass graft patients): increase in the thromboembolic events
effect on intraocular pressure (intraocular pressure): reduced intraocular pressure
plasma protein binding [16]: 98%
